Consider eleven compounds from patent publication US20260191968A1, “PROTAC DEGRADERS OF MLLT1 AND/OR MLLT3” (DARK BLUE THERAPEUTICS LTD, priority 2024, published 2026).

One test concerns the target T1, MLLT1 (Homo sapiens, UniProt Q03111).
T1 construct: host or cells: MV4-11
T1 sequence (Q03111 1-559): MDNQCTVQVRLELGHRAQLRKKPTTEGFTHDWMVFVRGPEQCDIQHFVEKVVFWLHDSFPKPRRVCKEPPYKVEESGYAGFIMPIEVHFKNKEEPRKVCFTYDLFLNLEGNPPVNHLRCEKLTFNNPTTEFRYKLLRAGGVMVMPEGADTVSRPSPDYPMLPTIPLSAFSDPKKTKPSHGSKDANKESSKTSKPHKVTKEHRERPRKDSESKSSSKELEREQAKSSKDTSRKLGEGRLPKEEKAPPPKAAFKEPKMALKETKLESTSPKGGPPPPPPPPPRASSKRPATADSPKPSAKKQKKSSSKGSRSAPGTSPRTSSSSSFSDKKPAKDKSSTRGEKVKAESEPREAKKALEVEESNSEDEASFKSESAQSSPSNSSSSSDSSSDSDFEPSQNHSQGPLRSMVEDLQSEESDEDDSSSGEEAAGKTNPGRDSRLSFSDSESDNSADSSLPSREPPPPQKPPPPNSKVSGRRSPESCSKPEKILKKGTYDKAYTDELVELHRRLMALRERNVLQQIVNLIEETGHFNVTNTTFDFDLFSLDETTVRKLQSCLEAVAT
Briefly: MLLT1 degradation assay in MV4-11 cells (JESS chemiluminescent detection), three concentrations, 24 h. Format: cell-based. Particulars: with respect to DMSO control. In short, it runs like this:
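Read-out is % MLLT1 degradation versus DMSO, from band peak areas on a JESS chemiluminescent system. Cells (MV4-11) were exposed for 24 h at 37° C to three compound levels, 10, 100 and 1000 nM, in 0.1% DMSO.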

The next test deals with MV4-11 cells. The experiment in a line: MV4-11 cellular proliferative assay, Assay Format B (CTG 2.0, 168 h). Format: cell-based. The conditions noted are these: Homo sapiens, 168 h (7 days), CTG 2.0, read-out: IC50 (MV4-11 cellular proliferative assay, Assay format B). In short, it runs like this: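 Viability read by CellTiter-Glo 2.0 luminescence after 7-day (168 h) compound exposure of MV4-11 cells in IMDM/10% FBS. Ten 3-fold concentrations starting at 1 uM or 100 nM, 0.3% final DMSO; curves normalised to DMSO control, four-parameter fit.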

Where only a bound is given, the exact number is not on record here.

Regarding `CN1CCC[C@@H]1c1cc2cnc(NC(=O)c3ccc(CCCC#Cc4cccc5c4CN(C4CCC(=O)NC4=O)C5=O)c(F)c3)cc2[nH]1` (stereo partly drawn) [Example 93, 4-(5-(2-(2,6-dioxopiperidin-3-yl)-1-oxoisoindolin-4-yl)pent-4-yn-1-yl)-3-fluoro-N-(2-((R)-1-methylpyrrolidin-2-yl)-1H-pyrrolo[3,2-c]pyridin-6-yl)benzamide], on MLLT1, the “MLLT1% Degradation @ 0.01 μM” value is “A (Category A: A ≥ 75% degradation)”, the “MLLT1% Degradation @ 0.1 μM” value was “A (Category A: A ≥ 75% degradation)” and the “MLLT1% Degradation @ 1 μM” value was “A (Category A: A ≥ 75% degradation)”. In the test with MV4-11 cells, the IC50 (usually the concentration needed to halve the response being measured) was ≤ 100 nM.
As to `CN1CCC[C@@H]1c1cc2cnc(NC(=O)c3ccc(CCC4CCN(c5cccc6c5CN(C5CCC(=O)NC5=O)C6=O)CC4)cc3)cc2[nH]1` (stereo partly drawn) [Example 177, 4-(2-(1-(2-(2,6-dioxopiperidin-3-yl)-1-oxoisoindolin-4-yl)piperidin-4-yl)ethyl)-N-(2-((R)-1-methylpyrrolidin-2-yl)-1H-pyrrolo[3,2-c]pyridin-6-yl)benzamide], at MLLT1, the “MLLT1% Degradation @ 0.01 μM” value is on record as “A (Category A: A ≥ 75% degradation)”, the “MLLT1% Degradation @ 0.1 μM” value is “A (Category A: A ≥ 75% degradation)” and the “MLLT1% Degradation @ 1 μM” value is “A (Category A: A ≥ 75% degradation)”. Also, the half-maximal inhibitory concentration (IC50) in the test on MV4-11 cells was ≤ 100 nM.
Turning to `COc1cc(N2CCN(CC3CCN(c4cccc5c4CN(C4CCC(=O)NC4=O)C5=O)CC3)CC2)cc(F)c1C(=O)Nc1cc2[nH]c([C@H]3CCCN3C)cc2cn1` (stereo partly drawn) [Example 120, 4-(4-((1-(2-(2,6-dioxopiperidin-3-yl)-1-oxoisoindolin-4-yl)piperidin-4-yl)methyl)piperazin-1-yl)-2-fluoro-6-methoxy-N-(2-((R)-1-methylpyrrolidin-2-yl)-1H-pyrrolo[3,2-c]pyridin-6-yl)benzamide], on MLLT1, the “MLLT1% Degradation @ 0.01 μM” value is recorded as “B (Category B: 50% ≤ B < 75% degradation)”, the “MLLT1% Degradation @ 0.1 μM” value is on record as “A (Category A: A ≥ 75% degradation)” and the “MLLT1% Degradation @ 1 μM” value is recorded as “C (Category C: 25% ≤ C < 50% degradation)”. In addition, the IC50 in the test on MV4-11 cells is ≤ 100 nM.
Take `CN1CCC[C@@H]1c1cc2cnc(NC(=O)c3ccc(CCCC#Cc4cccc5c4CN(C4CCC(=O)NC4=O)C5=O)cc3F)cc2[nH]1` (stereo partly drawn) [Example 94, 4-(5-(2-(2,6-dioxopiperidin-3-yl)-1-oxoisoindolin-4-yl)pent-4-yn-1-yl)-2-fluoro-N-(2-((R)-1-methylpyrrolidin-2-yl)-1H-pyrrolo[3,2-c]pyridin-6-yl)benzamide]: on MLLT1, the “MLLT1% Degradation @ 0.01 μM” value was “A (Category A: A ≥ 75% degradation)”, the “MLLT1% Degradation @ 0.1 μM” value is “A (Category A: A ≥ 75% degradation)” and the “MLLT1% Degradation @ 1 μM” value is “A (Category A: A ≥ 75% degradation)”. Further, the IC50 with MV4-11 cells was ≤ 100 nM.
With `CN1CCC[C@@H]1c1cc2cnc(NC(=O)c3ccc(CCCC#Cc4cccc5c4CN(C4CCC(=O)NC4=O)C5=O)nc3)cc2[nH]1` (stereo partly drawn) [Example 12, 6-(5-(2-(2,6-dioxopiperidin-3-yl)-1-oxoisoindolin-4-yl)pent-4-yn-1-yl)-N-(2-((R)-1-methylpyrrolidin-2-yl)-1H-pyrrolo[3,2-c]pyridin-6-yl)nicotinamide], at MLLT1, the “MLLT1% Degradation @ 0.01 μM” value is given as “B (Category B: 50% ≤ B < 75% degradation)”, the “MLLT1% Degradation @ 0.1 μM” value is “A (Category A: A ≥ 75% degradation)” and the “MLLT1% Degradation @ 1 μM” value was “A (Category A: A ≥ 75% degradation)”. Moreover, in the test with MV4-11 cells, the IC50 is ≤ 100 nM.
`CN1CCC[C@@H]1c1cc2cnc(NC(=O)c3ccc(N4CCC(OC5CCN(c6cccc7c6C(=O)N(C6CCC(=O)NC6=O)C7=O)CC5)CC4)nc3)cc2[nH]1` (stereo partly drawn) [Example 148, 6-(4-((1-(2-(2,6-dioxopiperidin-3-yl)-1,3-dioxoisoindolin-4-yl)piperidin-4-yl)oxy)piperidin-1-yl)-N-(2-((R)-1-methylpyrrolidin-2-yl)-1H-pyrrolo[3,2-c]pyridin-6-yl)nicotinamide]: on MLLT1, the “MLLT1% Degradation @ 0.01 μM” value is on record as “A (Category A: A ≥ 75% degradation)”, the “MLLT1% Degradation @ 0.1 μM” value was “A (Category A: A ≥ 75% degradation)” and the “MLLT1% Degradation @ 1 μM” value is recorded as “A (Category A: A ≥ 75% degradation)”. The IC50 in the test on MV4-11 cells is ≤ 100 nM.
For `CN1CC2(CC2)CC1c1cc2cnc(NC(=O)c3ccc(CCCCC#Cc4cccc5c4CN(C4CCC(=O)NC4=O)C5=O)nc3)cc2[nH]1` (stereo not drawn) [Example 86, 6-(6-(2-(2,6-dioxopiperidin-3-yl)-1-oxoisoindolin-4-yl)hex-5-yn-1-yl)-N-(2-((rel-R)-5-methyl-5-azaspiro[2.4]heptan-6-yl)-1H-pyrrolo[3,2-c]pyridin-6-yl)nicotinamide], on MLLT1, the “MLLT1% Degradation @ 0.01 μM” value is “A (Category A: A ≥ 75% degradation)”, the “MLLT1% Degradation @ 0.1 μM” value is on record as “A (Category A: A ≥ 75% degradation)” and the “MLLT1% Degradation @ 1 μM” value is “B (Category B: 50% ≤ B < 75% degradation)”. In addition, in the test on MV4-11 cells, the IC50 was ≤ 100 nM.
Take `CN1CCC[C@@H]1c1cc2cnc(NC(=O)c3ccc(OCCN4CCC(c5cccc6c5CN(C5CCC(=O)NC5=O)C6=O)CC4)cc3)cc2[nH]1` (stereo partly drawn) [Example 141, 4-(2-(4-(2-(2,6-dioxopiperidin-3-yl)-1-oxoisoindolin-4-yl)piperidin-1-yl)ethoxy)-N-(2-((R)-1-methylpyrrolidin-2-yl)-1H-pyrrolo[3,2-c]pyridin-6-yl)benzamide]: at MLLT1, the “MLLT1% Degradation @ 0.01 μM” value is “A (Category A: A ≥ 75% degradation)”, the “MLLT1% Degradation @ 0.1 μM” value was “A (Category A: A ≥ 75% degradation)” and the “MLLT1% Degradation @ 1 μM” value is “A (Category A: A ≥ 75% degradation)”. Further, the IC50 in the test with MV4-11 cells is ≤ 100 nM.
As to `CN1CCC[C@@H]1c1cc2cnc(NC(=O)c3ccc(N4CCN(C(=O)CC5CCN(c6cccc7c6CN(C6CCC(=O)NC6=O)C7=O)CC5)CC4)cc3)cc2[nH]1` (stereo partly drawn) [Example 88, 4-(4-(2-(1-(2-(2,6-dioxopiperidin-3-yl)-1-oxoisoindolin-4-yl)piperidin-4-yl)acetyl)piperazin-1-yl)-N-(2-((R)-1-methylpyrrolidin-2-yl)-1H-pyrrolo[3,2-c]pyridin-6-yl)benzamide], at MLLT1, the “MLLT1% Degradation @ 0.01 μM” value is on record as “B (Category B: 50% ≤ B < 75% degradation)”, the “MLLT1% Degradation @ 0.1 μM” value was “A (Category A: A ≥ 75% degradation)” and the “MLLT1% Degradation @ 1 μM” value is “B (Category B: 50% ≤ B < 75% degradation)”. Moreover, in the test on MV4-11 cells, the IC50 was ≤ 100 nM.
`CN1CCC[C@@H]1c1[nH]c2cc(NC(=O)CCCCCCC#Cc3cccc4c3CN(C3CCC(=O)NC3=O)C4=O)ncc2c1Cl` (stereo partly drawn) [Example 13, N-(3-chloro-2-((R)-1-methylpyrrolidin-2-yl)-1H-pyrrolo[3,2-c]pyridin-6-yl)-9-(2-(2,6-dioxopiperidin-3-yl)-1-oxoisoindolin-4-yl) non-8-ynamide]: on MLLT1, the “MLLT1% Degradation @ 0.01 μM” value is listed as “A (Category A: A ≥ 75% degradation)”, the “MLLT1% Degradation @ 0.1 μM” value is listed as “A (Category A: A ≥ 75% degradation)” and the “MLLT1% Degradation @ 1 μM” value is given as “A (Category A: A ≥ 75% degradation)”. Besides, the IC50 with MV4-11 cells is ≤ 100 nM.
Turning to `CN1CCC[C@@H]1c1cc2cnc(NC(=O)c3ccc(-c4cnn(CCOC5CCN(c6cccc(C(=O)N[C@H]7CCC(=O)NC7=O)n6)CC5)c4)cc3)cc2[nH]1` [Example 61, N—((S)-2,6-dioxopiperidin-3-yl)-6-(4-(2-(4-(4-((2-((R)-1-methylpyrrolidin-2-yl)-1H-pyrrolo[3,2-c]pyridin-6-yl)carbamoyl)phenyl)-1H-pyrazol-1-yl)ethoxy)piperidin-1-yl)picolinamide], at MLLT1, the “MLLT1% Degradation @ 0.01 μM” value is “A (Category A: A ≥ 75% degradation)”, the “MLLT1% Degradation @ 0.1 μM” value is listed as “A (Category A: A ≥ 75% degradation)” and the “MLLT1% Degradation @ 1 μM” value is listed as “B (Category B: 50% ≤ B < 75% degradation)”. For the same compound, the IC50 in the test on MV4-11 cells was ≤ 100 nM.
